# Data as given in patent US20240393292A1, “ALLERGY ANTIGEN AND EPITOPE THEREOF” (HOYU CO., LTD., priority 2019, published 2024).
# Tested on: IgE antibodies from patients
# Experiment: Wheat epitope mapping (2): overlapping 10-amino-acid peptide fragments shifted by one amino acid;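 for Rank of partial sequence as epitope binding to IgE antibody: key = sequence deemed particularly important within the common 15-residue sequence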;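 for epitope sequence binding to IgE antibody, rank (Key/Preferably/More preferably): key of grades: preferably = shorter partial sequence still acting as epitope; more preferably = sequence improving IgE binding; key = particularly important sequence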
# Format: binding, human
# Procedure, shortened: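 Residual binding was banded as <30% none, 30–<50% poor, 50–<70% somewhat poor and ≥70% retained, relative to the parent overlapping sequence set to 100%. Values were chemiluminescent IgE signals from patient sera after subtracting secondary-antibody-only controls. The peptides were spot-synthesised 10-mers shifted by one amino acid.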
# [1] = serum of patient P36 (WDEIA), partial sequence
# [2] = serum of patient P2 (WDEIA), partial sequence
# [3] = serum of patient P50 (child, general immediate type allergy to wheat), sequence without X
# [4] = serum of patient P29 (WDEIA), partial sequence
# [5] = serum of patient P53 (child, general immediate type allergy to wheat), partial sequence
# [6] = serum of patient P28 (WDEIA), partial sequence
# [7] = serum of patient P10 (WDEIA), partial sequence
# [8] = serum of patient G7 (adult, general immediate type allergy to wheat), sequence without X
# [9] = serum of patient P8 (WDEIA), sequence without X
# [10] = serum of patient P14 (WDEIA), sequence without X
substance,measurement,setting,value
1506 (YLQPQQP; REGION 1..7: note = epitope) [compound 1506],Rank of partial sequence as epitope binding to IgE antibody,"serum of patient G9 (adult, general immediate type allergy to wheat), sequence without X",Preferably
2695 (YKGPTL; REGION 1..6: note = epitope) [compound 2695],"Epitope sequence binding to IgE antibody, rank of the sequence",[1],Key
2547 (QSTYQLVQQL; REGION 1..10: note = epitope) [compound 2547],"Epitope sequence binding to IgE antibody, rank of the sequence",[2],Preferably
1558 (PLVQQQQF; REGION 1..8: note = epitope) [compound 1558],Rank of partial sequence as epitope binding to IgE antibody,[3],Preferably
2649 (KEAAE; REGION 1..5: note = epitope) [compound 2649],"Epitope sequence binding to IgE antibody, rank of the sequence",[4],Preferably
1867 (TVRTLQR; REGION 1..7: note = epitope) [compound 1867],"epitope sequence binding to IgE antibody, rank (Key/Preferably/More preferably)",serum of patient P28 (WDEIA),Preferably
2237 (NYRV; REGION 1..4: note = epitope) [compound 2237],"Epitope sequence binding to IgE antibody, rank of the sequence (Key/Preferably/More preferably)","serum of patient P30 (WDEIA), sequence without X",Key
1815 (PKFLK; REGION 1..5: note = epitope) [compound 1815],"epitope sequence binding to IgE antibody, rank (Key/Preferably/More preferably)",serum of patient P29 (WDEIA),Key
2597 (QQSTYQLV; REGION 1..8: note = epitope) [compound 2597],"Epitope sequence binding to IgE antibody, rank of the sequence",[5],Key
2730 (YKIGGIGTV; REGION 1..9: note = epitope) [compound 2730],"Epitope sequence binding to IgE antibody, rank of the sequence",[6],Preferably
2624 (AKPLL; REGION 1..5: note = epitope) [compound 2624],"Epitope sequence binding to IgE antibody, rank of the sequence","serum of patient G3 (adult, general immediate type allergy to wheat), partial sequence",Key
2637 (KEAAEM; REGION 1..6: note = epitope) [compound 2637],"Epitope sequence binding to IgE antibody, rank of the sequence",[7],Preferably
1698 (KEAANFT; REGION 1..7: note = epitope) [compound 1698],Rank of partial sequence as epitope binding to IgE antibody,"serum of patient P21 (WDEIA), sequence without X",More preferably
1637 (YNPDKVPF; REGION 1..8: note = epitope) [compound 1637],Rank of partial sequence as epitope binding to IgE antibody,"serum of patient P33 (WDEIA), sequence without X",Key
1450 (YLQPQQPISQ; REGION 1..10: note = epitope) [compound 1450],Rank of partial sequence as epitope binding to IgE antibody,"serum of patient P22 (WDEIA), sequence without X",Further preferably
1901 (VPLVQ; REGION 1..5: note = epitope) [compound 1901],"epitope sequence binding to IgE antibody, rank (Key/Preferably/More preferably)",serum of patient P3 (WDEIA),Key
1291 (LPRS; REGION 1..4: note = epitope) [compound 1291],"Epitope sequence binding to IgE antibody, rank of the sequence","serum of patient P53 (child, general immediate type allergy to wheat), sequence without X",Key
2514 (SFQPSQLNPQ; REGION 1..10: note = epitope) [compound 2514],"Epitope sequence binding to IgE antibody, rank of the sequence","serum of patient P51 (child, general immediate type allergy to wheat), partial sequence",Preferably
1915 (QVPLVQQQQ; REGION 1..9: note = epitope) [compound 1915],"epitope sequence binding to IgE antibody, rank (Key/Preferably/More preferably)",serum of patient P9 (WDEIA),Key
2638 (EAAE; REGION 1..4: note = epitope) [compound 2638],"Epitope sequence binding to IgE antibody, rank of the sequence",[7],Key
2487 (KAWSGK; REGION 1..6: note = epitope) [compound 2487],"Epitope sequence binding to IgE antibody, rank of the sequence (Key/Preferably/More preferably)",[8],More preferably
2272 (GIDKRVIERF; REGION 1..10: note = epitope) [compound 2272],"Epitope sequence binding to IgE antibody, rank of the sequence (Key/Preferably/More preferably)",[9],Preferably
2263 (SRLLR; REGION 1..5: note = epitope) [compound 2263],"Epitope sequence binding to IgE antibody, rank of the sequence (Key/Preferably/More preferably)","serum of patient G6 (adult, general immediate type allergy to wheat), sequence without X",Key
2493 (SSQVSF; REGION 1..6: note = epitope) [compound 2493],"Epitope sequence binding to IgE antibody, rank of the sequence",[2],Preferably
2280 (DKRVIERFEK; REGION 1..10: note = epitope) [compound 2280],"Epitope sequence binding to IgE antibody, rank of the sequence (Key/Preferably/More preferably)",[10],Preferably
1755 (YLKK; REGION 1..4: note = epitope) [compound 1755],"epitope sequence binding to IgE antibody, rank (Key/Preferably/More preferably)",serum of patient P7 (WDEIA),Key
2512 (SQVSF; REGION 1..5: note = epitope) [compound 2512],"Epitope sequence binding to IgE antibody, rank of the sequence",[1],Key
2253 (RNYRVAI; REGION 1..7: note = epitope) [compound 2253],"Epitope sequence binding to IgE antibody, rank of the sequence (Key/Preferably/More preferably)","serum of patient P52 (child, general immediate type allergy to wheat), sequence without X",Preferably
2676 (YKGPTL; REGION 1..6: note = epitope) [compound 2676],"Epitope sequence binding to IgE antibody, rank of the sequence","serum of patient P8 (WDEIA), partial sequence",Key
1300 (SINVENVED; REGION 1..9: note = epitope) [compound 1300],"Epitope sequence binding to IgE antibody, rank of the sequence (Key/Preferably/More preferably/Further preferably)","serum of patient P2 (WDEIA), sequence without X",Preferably
1565 (QQQQFLGQ; REGION 1..8: note = epitope) [compound 1565],Rank of partial sequence as epitope binding to IgE antibody,[8],Key
2660 (EMNKRSF; REGION 1..7: note = epitope) [compound 2660],"Epitope sequence binding to IgE antibody, rank of the sequence","serum of patient P35 (WDEIA), partial sequence",Key
1955 (QFPGQ; REGION 1..5: note = epitope) [compound 1955],"epitope sequence binding to IgE antibody, rank (Key/Preferably/More preferably)",serum of patient P26 (WDEIA),Key
1943 (QFPGQQ; REGION 1..6: note = epitope) [compound 1943],"epitope sequence binding to IgE antibody, rank (Key/Preferably/More preferably)",serum of patient P21 (WDEIA),Key
1534 (QQQQFLG; REGION 1..7: note = epitope) [compound 1534],Rank of partial sequence as epitope binding to IgE antibody,[10],Preferably
1388 (QQPLPPQQQ; REGION 1..9: note = epitope) [compound 1388],"Epitope sequence binding to IgE antibody, rank of the sequence",[10],Preferably
1889 (TVRTLQR; REGION 1..7: note = epitope) [compound 1889],"epitope sequence binding to IgE antibody, rank (Key/Preferably/More preferably)","serum of patient G6 (adult, general immediate type allergy to wheat)",Preferably
2510 (PSQLNPQ; REGION 1..7: note = epitope) [compound 2510],"Epitope sequence binding to IgE antibody, rank of the sequence",[4],Key
1550 (LVQQQQFLGQ; REGION 1..10: note = epitope) [compound 1550],Rank of partial sequence as epitope binding to IgE antibody,"serum of patient P34 (WDEIA), sequence without X",More preferably
1247 (PIQQQP; REGION 1..6: note = epitope) [compound 1247],"Epitope sequence binding to IgE antibody, rank of the sequence","serum of patient P32 (WDEIA), sequence without X",Key
2725 (YKIGG; REGION 1..5: note = epitope) [compound 2725],"Epitope sequence binding to IgE antibody, rank of the sequence","serum of patient P27 (WDEIA), partial sequence",Preferably
2271 (LGGIDKRV; REGION 1..8: note = epitope) [compound 2271],"Epitope sequence binding to IgE antibody, rank of the sequence (Key/Preferably/More preferably)",[9],More preferably
1464 (QQPISQQQA; REGION 1..9: note = epitope) [compound 1464],Rank of partial sequence as epitope binding to IgE antibody,"serum of patient P24 (WDEIA), sequence without X",More preferably
1320 (NVEN; REGION 1..4: note = epitope) [compound 1320],"Epitope sequence binding to IgE antibody, rank of the sequence","serum of patient P17 (WDEIA), sequence without X",Key
2295 (LGGIDKRV; REGION 1..8: note = epitope) [compound 2295],"Epitope sequence binding to IgE antibody, rank of the sequence (Key/Preferably/More preferably/Further preferably)",[3],Preferably
2574 (QLVQQL; REGION 1..6: note = epitope) [compound 2574],"Epitope sequence binding to IgE antibody, rank of the sequence",[6],Preferably
2599 (QLVQQLCC; REGION 1..8: note = epitope) [compound 2599],"Epitope sequence binding to IgE antibody, rank of the sequence",[5],Preferably
2614 (AKPLL; REGION 1..5: note = epitope) [compound 2614],"Epitope sequence binding to IgE antibody, rank of the sequence",[2],Key
1650 (YNPDKVPF; REGION 1..8: note = epitope) [compound 1650],Rank of partial sequence as epitope binding to IgE antibody,[3],Preferably
1726 (KEAANFTS; REGION 1..8: note = epitope) [compound 1726],"epitope sequence binding to IgE antibody, rank (Key/Preferably/More preferably)","serum of patient P51 (child, general immediate type allergy to wheat)",Preferably
1487 (YLQPQQPISQ; REGION 1..10: note = epitope) [compound 1487],Rank of partial sequence as epitope binding to IgE antibody,"serum of patient P35 (WDEIA), sequence without X",Preferably
1525 (LVQQQQFLG; REGION 1..9: note = epitope) [compound 1525],Rank of partial sequence as epitope binding to IgE antibody,"serum of patient P10 (WDEIA), sequence without X",Preferably
2612 (QLVQQLCC; REGION 1..8: note = epitope) [compound 2612],"Epitope sequence binding to IgE antibody, rank of the sequence","serum of patient G9 (adult, general immediate type allergy to wheat), partial sequence",Key
